Measured values reported in ChEMBL document CHEMBL4033623, “Synthesis of xanthone derivatives and studies on the inhibition against cancer cells growth and synergistic combinations of them” (Eur J Med Chem, 2017).

Tests used:
Type in all cases: functional, cell-based
MCF7 [1] = test: Antiproliferative activity against human MCF7 cells after 48 hrs by CCK8 assay; settings: MCF7, 48 h
HepG2 [2] = test: Antiproliferative activity against human HepG2 cells after 48 hrs by CCK8 assay; settings: HepG2, 48 h
COLO 320 [3] = test: Antiproliferative activity against human COLO320 cells after 48 hrs by CCK8 assay; settings: COLO 320, 48 h
MDA-MB-231 [4] = test: Antiproliferative activity against human MDA-MB-231 cells after 48 hrs by CCK8 assay; settings: MDA-MB-231, 48 h
K562 [5] = test: Antiproliferative activity against human K562 cells after 48 hrs by CCK8 assay; settings: K562, 48 h
K562 [6] = test: Synergistic antiproliferative activity against human K562 cells at compound to DMXAA mol ratio of 1:1 after 48 hrs by CCK8 assay; settings: K562, 48 h
MCF7 [7] = test: Synergistic antiproliferative activity against human MCF7 cells at compound to DMXAA mol ratio of 1:1 after 48 hrs by CCK8 assay; settings: MCF7, 48 h
COLO 320 [8] = test: Synergistic antiproliferative activity against human COLO320 cells at compound to DMXAA mol ratio of 1:1 after 48 hrs by CCK8 assay; settings: COLO 320, 48 h
HepG2 [9] = test: Synergistic antiproliferative activity against human HepG2 cells at compound to DMXAA mol ratio of 1:1 after 48 hrs by CCK8 assay; settings: HepG2, 48 h
MDA-MB-231 [10] = test: Synergistic antiproliferative activity against human MDA-MB-231 cells at compound to DMXAA mol ratio of 1:1 after 48 hrs by CCK8 assay; settings: MDA-MB-231, 48 h

## Cc1ccc2c(=O)c3cccc(O)c3oc2c1
MCF7 [1]
  IC50: 83.4 µM
HepG2 [2]
  IC50: 93.8 µM
COLO 320 [3]
  IC50: 53.7 µM
MDA-MB-231 [4]
  IC50: 43.8 µM
K562 [5]
  IC50: 93.5 µM

## O=c1c2cc(Cl)ccc2oc2c(O)cccc12
MCF7 [1]
  IC50: 13 µM
HepG2 [2]
  IC50: 37.3 µM
COLO 320 [3]
  IC50: 87.5 µM
MDA-MB-231 [4]
  IC50: 57.1 µM
K562 [5]
  IC50: 52.1 µM

## O=c1c2ccccc2oc2cc(O)cc(O)c12
MCF7 [1]
  IC50: 11.2 µM
HepG2 [2]
  IC50: 11.7 µM
COLO 320 [3]
  IC50: 15.1 µM
MDA-MB-231 [4]
  IC50: 11.6 µM
K562 [5]
  IC50: 45.1 µM

## O=c1c2cc(O)ccc2oc2c(O)cccc12
MCF7 [1]
  IC50: 13.4 µM
HepG2 [2]
  IC50: 23.8 µM
COLO 320 [3]
  IC50: 53.7 µM
MDA-MB-231 [4]
  IC50: 43.8 µM
K562 [5]
  IC50: 43.5 µM

## O=c1c2ccccc2oc2c(O)c(O)ccc12 [3,4-DIHYDROXYXANTHONE]
MCF7 [1]
  IC50: 93.2 µM
HepG2 [2]
  IC50: 89.7 µM
COLO 320 [3]
  IC50: 73 µM
MDA-MB-231 [4]
  IC50: 124 µM
K562 [5]
  IC50: 103 µM

## O=c1c2ccccc2oc2cc(O)ccc12
MCF7 [1]
  IC50: 121 µM
HepG2 [2]
  IC50: 85.3 µM
COLO 320 [3]
  IC50: > 200 µM
MDA-MB-231 [4]
  IC50: 93 µM
K562 [5]
  IC50: > 200 µM

## O=c1c2cccc(O)c2oc2cc(O)cc(O)c12
MCF7 [1]
  IC50: 23.4 µM
HepG2 [2]
  IC50: 33.8 µM
COLO 320 [3]
  IC50: 23.7 µM
MDA-MB-231 [4]
  IC50: 23.8 µM
K562 [5]
  IC50: 28.5 µM

## O=c1c2cc(O)ccc2oc2cc(O)c(O)cc12
MCF7 [1]
  IC50: 28.1 µM
HepG2 [2]
  IC50: 63.3 µM
COLO 320 [3]
  IC50: 93.2 µM
MDA-MB-231 [4]
  IC50: 23.5 µM
K562 [5]
  IC50: 73.5 µM

## Cc1ccc2c(=O)c3c(O)cc(O)cc3oc2c1
MCF7 [1]
  IC50: 4.2 µM
HepG2 [2]
  IC50: 12.7 µM
COLO 320 [3]
  IC50: 27.1 µM
MDA-MB-231 [4]
  IC50: 8.6 µM
K562 [6]
  IC50: 4.65 µM
MCF7 [7]
  IC50: 2.06 µM
K562 [5]
  IC50: 5.1 µM
COLO 320 [8]
  IC50: 22.8 µM
HepG2 [9]
  IC50: 8.75 µM
MDA-MB-231 [10]
  IC50: 2.63 µM

## O=c1c2ccc(O)cc2oc2c(O)cccc12
MCF7 [1]
  IC50: 41.9 µM
HepG2 [2]
  IC50: 23.7 µM
COLO 320 [3]
  IC50: 55.1 µM
MDA-MB-231 [4]
  IC50: 95.6 µM
K562 [5]
  IC50: 45.1 µM

## O=c1c2cc(O)ccc2oc2c(O)c(O)ccc12
MCF7 [1]
  IC50: > 200 µM
HepG2 [2]
  IC50: > 200 µM
COLO 320 [3]
  IC50: 83.1 µM
MDA-MB-231 [4]
  IC50: 53.1 µM
K562 [5]
  IC50: 63.1 µM

## O=c1c2cc(O)c(O)cc2oc2cc(O)cc(O)c12
MCF7 [1]
  IC50: 43.2 µM
HepG2 [2]
  IC50: 23.7 µM
COLO 320 [3]
  IC50: 23 µM
MDA-MB-231 [4]
  IC50: 23.6 µM
K562 [5]
  IC50: 13.1 µM

## O=c1c2ccccc2oc2ccc(Cl)cc12
MCF7 [1]
  IC50: > 200 µM
HepG2 [2]
  IC50: 62 µM
COLO 320 [3]
  IC50: 96.7 µM
MDA-MB-231 [4]
  IC50: 69.4 µM
K562 [5]
  IC50: > 200 µM

## O=c1c2cc(Cl)ccc2oc2cccc(O)c12
MCF7 [1]
  IC50: 53.1 µM
HepG2 [2]
  IC50: > 200 µM
COLO 320 [3]
  IC50: > 200 µM
MDA-MB-231 [4]
  IC50: 67.1 µM
K562 [5]
  IC50: 62 µM

## O=c1c2cc(O)c(O)cc2oc2cccc(O)c12
MCF7 [1]
  IC50: 101 µM
HepG2 [2]
  IC50: 83.8 µM
COLO 320 [3]
  IC50: 85.1 µM
MDA-MB-231 [4]
  IC50: 65.9 µM
K562 [5]
  IC50: 156 µM

## O=c1c2c(O)cccc2oc2cc(O)cc(O)c12
MCF7 [1]
  IC50: 31.6 µM
HepG2 [2]
  IC50: 55.3 µM
COLO 320 [3]
  IC50: 36.4 µM
MDA-MB-231 [4]
  IC50: 33 µM
K562 [5]
  IC50: 60.1 µM
